Source: US10952999B2, “Inhibitor of cyclin-dependent kinase CDK9” (GENFLEET THERAPEUTICS (SHANGHAI) INC., priority 2017, dated 2021)

Legend:
Format in all cases: cell-based
[1] = tested on: acute B cell leukemia cell line MEC-2; assay: Cancer cell growth, Cell Titer-Glo cell viability assay, 72 hours; conditions: MEC2; MEC-2, 72 hours
How it was run: (§1)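 ATP in surviving cells is measured by CellTiter-Glo self-luminescence; values reported as GI50 and IC50 calculated from this signal.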

[2] = tested on: acute promyelocytic leukemia cell line NB-4; assay: as above; conditions: NB4, 72 hours
How it was run: as §1

[3] = tested on: human breast cancer cell MCF-7; assay: as above; conditions: MCF7, MCF-7, 72 hours
How it was run: as §1

[4] = tested on: hamster ovary cell CHO; assay: as above
How it was run: as §1

[5] = tested on: acute myeloid leukemia cell line OCI-AML-2; assay: as above; conditions: Homo sapiens; OCI-AML2, 72 hours
How it was run: as §1

[6] = tested on: acute myeloid leukemia cell line MOLM13; assay: as above; conditions: Homo sapiens; MOLM-13, 72 hours
How it was run: as §1

[7] = tested on: histiocytic lymphoma U-937; assay: as above; conditions: Homo sapiens; U-937, 72 hours
How it was run: as §1

[8] = tested on: MDS-RAEB (myelodysplastic syndrome-excess blasts type) cell line SKM-1; assay: as above; conditions: Homo sapiens; SKM-1, 72 hours
How it was run: as §1

[9] = tested on: human non-small cell lung cancer cell HCC827; assay: as above; conditions: HCC827, 72 hours
How it was run: as §1

[10] = tested on: human breast cancer cell SK-Br-3; assay: as above; conditions: SK-Br-3, 72 hours
How it was run: as §1

[11] = tested on: human non-small cell lung cancer cell H1915; assay: as above; conditions: NCI-H1915, H1915, 72 hours
How it was run: as §1

[12] = tested on: human breast cancer cell T47D; assay: as above
How it was run: as §1

[13] = tested on: human non-small cell lung cancer cell H2122; assay: as above; conditions: NCI-H2122, H2122, 72 hours
How it was run: as §1

[14] = tested on: human non-small cell lung cancer cell PC-9; assay: as above; conditions: PC-9, 72 hours
How it was run: as §1

[15] = tested on: acute myeloid leukemia cell line MOLM14; assay: as above; conditions: Homo sapiens; MOLM-14, 72 hours
How it was run: as §1

[16] = tested on: human non-small cell lung cancer cell H1975; assay: as above; conditions: NCI-H1975, H1975, 72 hours
How it was run: as §1

[17] = tested on: human non-small cell lung cancer cell H358; assay: as above; conditions: NCI-H358, H358, 72 hours
How it was run: as §1

[18] = tested on: acute myeloid leukemia cell line HL-60; assay: as above; conditions: Homo sapiens; HL-60, 72 hours
How it was run: as §1

[19] = tested on: human leukemia cell Nomo-1; assay: as above; conditions: Homo sapiens; Nomo-1, 72 hours
How it was run: as §1

[20] = tested on: human lung adenocarcinoma cell H1355; assay: as above; conditions: NCI-H1355, H1355, 72 hours
How it was run: as §1

[21] = tested on: acute B cell leukemia cell line MEC-1; assay: as above; conditions: Homo sapiens, MEC1; MEC-1, 72 hours
How it was run: as §1

[22] = tested on: human lung adenocarcinoma cell H1395; assay: as above; conditions: NCI-H1395, H1395, 72 hours
How it was run: as §1

[23] = tested on: acute megakaryoblastic leukemia CMK; assay: as above
How it was run: as §1

[24] = tested on: hamster lung cell CHL; assay: as above
How it was run: as §1

[25] = tested on: human breast cancer cell MDA-MB-468; assay: as above; conditions: MDA-MB-468, 72 hours
How it was run: as §1

[26] = tested on: human small cell lung cancer cell H209; assay: as above; conditions: NCI-H209, H209, 72 hours
How it was run: as §1

[27] = tested on: human lung cancer cell H3122; assay: as above; conditions: NCI-H3122, H3122, 72 hours
How it was run: as §1

[28] = tested on: acute promyelocytic leukemia cell line NB-4; assay: Effect on cell cycle distribution, PI staining, flow cytometry; conditions: NB-4, 0.01-0.1 μM, 12, 24 or 48 hours
Method: (§2) In order to study in which cycle the cells were prevented after administration, in the three cell lines, acute promyelocytic leukemia cell line NB-4, acute myelocytic leukemia cell line (AML) HL-60, and acute myelocytic leukemia cell line (AML) MV4-11, the effects of compound 1 on the cell cycle distribution of these cell lines were tested. […] The cell cycle distribution was measured by flow cytometry (BD FACS Calibur).

[29] = tested on: acute myelocytic leukemia cell line (AML) HL-60; assay: as above; conditions: HL-60, 0.01-0.1 μM, 12, 24 or 48 hours
Method: as §2

[30] = tested on: acute myelocytic leukemia cell line (AML) MV4-11; assay: as above; conditions: MV4-11, 0.01-0.1 μM, 12, 24 or 48 hours
Method: as §2

## COC[C@@H](C)N[C@H]1CC[C@H](Nc2cc(-c3csc(NCC4(C#N)CCOCC4)n3)c(Cl)cn2)CC1 [Compound 1, 4-(((4-(5-chloro-2-(((1R,4r)-4-(((R)-1-methoxypropyl-2-yl)amino)cyclohexyl)amino)pyridin-4-yl)thiazol-2-yl)amino)methyl)tetrahydro-2H-pyran-4-carbonitrile]
[1]
  GI50: 25 nM
[2]
  GI50: 35 nM
[3]
  IC50: 6 nM
[4]; CHO cells
  inhibitory effect on normal cell CHO (in words): no inhibitory effect
[4]; CHO, 72 hours
  GI50: 1600 nM
[5]
  GI50: 33 nM
[6]
  GI50: 25 nM
[7]
  GI50: 17 nM
[8]
  GI50: 33 nM
[9]
  IC50: 60 nM
[10]
  IC50: 40 nM
[11]
  IC50: 37 nM
[12]
  IC50: 55 nM
[13]
  IC50: 49 nM
[14]
  IC50: 90 nM
[15]
  GI50: 25 nM
[16]
  IC50: 42 nM
[17]
  IC50: 43 nM
[18]
  GI50: 32 nM
[19]
  GI50: 45 nM
[20]
  IC50: 100 nM
[21]
  GI50: 47 nM
[22]
  IC50: 120 nM
[23]
  GI50: 49 nM
[24]; CHL cells
  inhibitory effect on normal cell CHL (in words): no inhibitory effect
[24]; CHL, 72 hours
  GI50: 1100 nM
[25]
  IC50: 18 nM
[26]
  IC50: 86 nM
[27]
  IC50: 11 nM
[28]
  effect on the cell cycle: blocked the cells in G0-G1 phase
[29]
  effect on the cell cycle: blocked the cells in G0-G1 phase
[30]
  effect on the cell cycle: blocked the cells in G0-G1 phase
